{"source": "patent US4902720A", "about": "(priority 1988, dated 1990)", "key": {"HSV-2 (333 strain)": {"system": "HSV-2 (333 strain)", "experiment": "Plaque inhibition by HMB, HSV-2 333 strain in Vero cells (third series, Experiments 1M-1P)", "format": "cell-based", "procedure": "In this experiment, 25 mg/ml HMB was tested on Vero cells infected with HSV-2. The virus control cultures, without HMB, had 705 plaque.\nThe number of plaque on the virus control was about 10 to 12 plaque.\nIn this experiment, 25 mg/ml, 20 mg/ml, and 15 mg/ml of HMB concentrations were tested on Vero cells infected with HSV-2. […] The experimental flasks had as many, or more, plaque as the control, with an average of 154 plaque for the control and 169 plaque for the HMB-treated flasks.\nHMB was further tested at a concentration of 20 mg/ml of reinfected Vero cells."}, "RK-13 cells": {"system": "RK-13 cells", "details": "25 mg/ml, 48 hours, 37° C.", "procedure": "(§1) Healthy confluent monolayer cell cultures were overlaid with 1 ml of the drug and incubated for 48 hours at 37° C. and then stained. Cell cultures with maintenance media were used as controls."}, "[1]": {"system": "Flow 1000 cells (foreskin cells)", "details": "25 mg/ml, 48 hours, 37° C.", "procedure": "as §1"}, "Vero cells": {"system": "Vero cells", "details": "25 mg/ml, 48 hours, 37° C.", "procedure": "as §1"}, "HSV-1 and HSV-2": {"system": "HSV-1 and HSV-2", "format": "cell-based", "details": "summary"}}, "data": [{"smiles": "C[N+](C)(C)CCCCCC[N+](C)(C)C", "note": "[HMB, hexamethonium bromide]", "values": [{"measurement": "appearance of cell layer", "setting": "HSV-2 (333 strain); Exp. 1M, 25 mg/ml HMB", "result": "thin cell layer"}, {"measurement": "number of plaque", "setting": "HSV-2 (333 strain); Exp. 1M, 25 mg/ml HMB, control 705", "result": 142, "unit": "plaque"}, {"measurement": "inhibition of plaque", "setting": "HSV-2 (333 strain); Exp. 1N, 20 mg/ml HMB, control about 10 to 12 plaque", "result": "complete inhibition of plaque"}, {"measurement": "effect on plaque", "setting": "HSV-2 (333 strain); Exp. 1O, 15 mg/ml HMB", "result": "did not have any effect"}, {"measurement": "average number of plaque", "setting": "HSV-2 (333 strain); Exp. 1O, 15 mg/ml HMB, control 154", "result": 169, "unit": "plaque"}, {"measurement": "number of plaque", "setting": "HSV-2 (333 strain); Exp. 1O, 20 mg/ml HMB", "result": "no plaque"}, {"measurement": "toxicity to the monolayer", "setting": "HSV-2 (333 strain); Exp. 1O, 25 mg/ml HMB", "result": "toxic to the monolayer"}, {"measurement": "number of plaque", "setting": "HSV-2 (333 strain); Exp. 1O, 25 mg/ml HMB, most likely due to toxicity", "result": "no plaque"}, {"measurement": "inhibition at 25000 µg/mL", "setting": "HSV-2 (333 strain); Human alphaherpesvirus 2, Vero, Exp. 1M, 25 mg/ml HMB", "result": 80, "unit": "%"}, {"measurement": "inhibition at 20000 µg/mL", "setting": "HSV-2 (333 strain); Human alphaherpesvirus 2, Vero, Exp. 1P, 20 mg/ml HMB", "result": 91, "unit": "%"}, {"measurement": "toxicity", "setting": "RK-13 cells", "result": "slight toxicity"}, {"measurement": "toxicity", "setting": "[1]", "result": "no toxicity"}, {"measurement": "toxicity", "setting": "Vero cells", "result": "no toxicity"}, {"measurement": "in vitro replication of HSV-1 and HSV-2", "setting": "HSV-1 and HSV-2", "result": "inhibit the in vitro replication of HSV-1 and HSV-2"}]}]}
